In patent EP0430485A2, “Quinoline compound” (priority 1989, dated 1991):
Structures can show the parent of a compound that is named as a salt.

System: scopolamine-induced amnesia
Format: in vivo, Wistar male rats
Settings: rat, in vivo
Method: In order to show effects of the compounds according to the present invention in more detail, a part of experimental examples relating to action against scopolamine-induced amnesia for step-through passive avoidance response in rats is shown below.
Wistar male rats of 7 to 8 weeks old were used to experiment after fasting for 12 hours. Rats were divided into groups with 8 rats per group and 1.5 mg/kg of scopolamine was intraperitoneally administered. After 30 minutes from the administration, rats were placed in a light compartment of a step-through type passive avoidance apparatus constituted by two compartments (25 × 10 × 25 cm of a light compartment and 30 × 30 × 30 cm of a dark compartment having a guillotine door and a floor grid for passing current) and a latent time by entering into a dark compartment was measured. The guillotine door was shut when a rat entered into the dark compartment and shock with 0.6 mA for 3 seconds was applied through the floor grid for acquisition trial. After acquisition trial, 10 mg/kg of each test compound was orally administered to rats and returned to their home cage. After 24 hours, rats were again placed in the light compartment at which the guillotine door was opened, a latent time by entering into the dark compartment was measured whereby presence or absence of improved effect of memory retention was judged.

Molecule	Latent time of memory retention [s]
Nc1c2c(nc3ccccc13)CCCC2 [Tacrine, 9-amino-1,2,3,4-tetrahydroacridine, reference compound]	58

Same assay, conditions: rats, scopolamine 1.5 mg/kg intraperitoneally; test compound 10 mg/kg p.o. after acquisition trial; latent time by entering the dark compartment measured after 24 hours; 8 rats per group

Molecule	Latent time of memory retention [s]
Nc1c2c(nc3cccc(F)c13)NCCC2 [Example 20, 5-amino-6-fluoro-1,2,3,4-tetrahydrobenzo[d] [1,8]naphthylidine]	59
4-Amino-5-fluoro-1-isoamyl-2,3-dihydro-1H-pyrrolo[2,3-b]quinoline·trihydrate [Example 33]	151
CC(=O)N1CCCc2c1nc1cccc(F)c1c2N [Example 24, 1-acetyl-5-amino-6-fluoro-1,2,3,4-tetrahydrobenzo[b] [1,8]naphthylidine]	168
CCCCCCCCCCCCN1CCCCc2c1nc1cccc(F)c1c2N [Example 3, 6-amino-1-dodecyl-7-fluoro-2,3,4,5-tetrahydro-1H-azepino[2,3-b]quinoline]	140
Nc1c2c(nc3ccccc13)NCC2 [Example 22, 4-Amino-2,3-dihydro-1H-pyrrolo[2,3-b]quinoline·hydrobromide]	78
CN1CCc2c1nc1ccccc1c2N [Example 1, 4-amino-1-methyl-2,3-dihydro-1H-pyrrolo[2,3-b] quinoline]	128
Nc1c2c(nc3cc(Cl)ccc13)NCCC2 [Example 31, 5-Amino-8-chloro-1,2,3,4-tetrahydrobenzo[b] [1,8]naphthylidine]	72
Nc1c2c(nc3cccc(F)c13)N(C(=O)c1ccccc1)CCC2 [Example 26]	84
Nc1c2c(nc3ccccc13)N(Cc1ccccc1)CCCC2 [Example 10, 6-Amino-1-benzyl-2,3,4,5-tetrahydro-1H-azepino[2,3-b]-quinoline·hydrochloride]	188
Nc1c2c(nc3cccc(Cl)c13)N(Cc1ccccc1)CCCC2 [Example 11, 6-Amino-1-benzyl-7-chloro-2,3,4,5-tetrahydro-1H-azepino[2,3-b]quinoline·hydrochloride]	163
Nc1c2c(nc3cccc(Cl)c13)NCCC2 [Example 21, 5-amino-6-chloro-1,2,3,4-tetrahydrobenzo[b] [1,8]naphthylidine]	117
